Biological target: T1, soluble epoxide hydrolase (sEH) (Homo sapiens, UniProt P34913)
T1 construct: gene EPHX2; Recombinant human sEH
T1 sequence (P34913 1-555): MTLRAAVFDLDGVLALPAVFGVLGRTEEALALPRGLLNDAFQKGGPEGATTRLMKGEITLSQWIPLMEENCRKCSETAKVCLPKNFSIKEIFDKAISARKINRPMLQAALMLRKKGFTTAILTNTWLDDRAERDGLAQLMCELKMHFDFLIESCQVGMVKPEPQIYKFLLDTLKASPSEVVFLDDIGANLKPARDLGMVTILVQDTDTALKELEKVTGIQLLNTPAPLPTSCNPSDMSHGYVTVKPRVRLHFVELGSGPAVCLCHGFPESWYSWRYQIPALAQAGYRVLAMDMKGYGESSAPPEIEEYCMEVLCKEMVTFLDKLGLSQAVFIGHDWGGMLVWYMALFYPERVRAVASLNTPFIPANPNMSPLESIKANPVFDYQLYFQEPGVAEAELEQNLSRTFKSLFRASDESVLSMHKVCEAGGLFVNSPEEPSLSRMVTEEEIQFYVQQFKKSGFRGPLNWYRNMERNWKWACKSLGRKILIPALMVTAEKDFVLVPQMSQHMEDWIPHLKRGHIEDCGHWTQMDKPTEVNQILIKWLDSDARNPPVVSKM
Experiment: SPR (Biacore T200); supported by inhibition kinetics (Ki […]), pull-down, CETSA, SIP, DARTS
Type: binding

Kd: 1320 nM
Structure (SMILES): C[C@H](C[C@H](O)[C@H]1OC1(C)C)C1=C2C[C@H](O)[C@H]3[C@@]4(C)CCC(=O)C(C)(C)[C@@H]4CC[C@]3(C)[C@@]2(C)CC1 [alisol B]

Reference: article PMC9760444, “Direct targeting of sEH with alisol B alleviated the apoptosis, inflammation, and oxidative stress in cisplatin-induced acute kidney injury” (International Journal of Biological Sciences, 2023)
